From US20150197550A1 (UNIVERSITY OF ULSTER, priority 2012, published 2015)
Square brackets hold non-standard residues; d marks the D form. Peptide text beside a SMILES is read from it.

Experiments:
[1] = Stability on incubation with mouse plasma for 8 h (RP-HPLC peak height); assay type: in vitro ADME; details: mouse, plasma
Procedure: The samples were then separated on RP-HPLC and the peak height compared to the value at time=0 hours.

[2] = human, in vivo; cited from earlier work

Row | metabolised at 8 h [1] [%] | Compound | half-life [2]
1 | 40.1 | CSCC[C@H](NC(=O)[C@H](Cc1ccc(O)cc1)NC(=O)[C@H](CCCCN)NC(=O)[C@H](CO)NC(=O)[C@H](Cc1ccc(O)cc1)NC(=O)[C@H](CC(=O)O)NC(=O)[C@H](CO)NC(=O)[C@@H](NC(=O)[C@H](Cc1ccccc1)NC(=O)[C@@H](NC(=O)CNC(=O)[C@H](CCC(=O)O)NC(=O)[C@@H](C)NC(=O)[C@@H](N)Cc1c[nH]cn1)[C@@H](C)O)[C@@H](C)O)C(=O)N[C@@H](CC(=O)O)C(=O)N[C@@H](CC(N)=O)C(=O)N[C@@H](CCCNC(=N)N)C(=O)N[C@@H](CCCNC(=N)N)C(=O)N[C@@H](C)C(=O)N[C@@H](CCCCN)C(=O)N[C@@H](CC(=O)O)C(=O)N[C@@H](Cc1ccccc1)C(=O)N[C@H](C(=O)N[C@@H](CCC(N)=O)C(=O)N[C@@H](Cc1c[nH]c2ccccc12)C(=O)N[C@@H](CC(C)C)C(=O)N[C@@H](CCSC)C(=O)N[C@@H](CC(N)=O)C(=O)N[C@H](C(=O)O)[C@@H](C)O)C(C)C [(D-Ala^2) dogfish glucagon, (D-A^2) dogfish glucagon] (H-H[dA]EGTFTSDYSKYMDNRRAKDFVQWLMNT-OH; N-terminus and C-terminus assumed) | –
2 | 38.8 | CSCC[C@H](NC(=O)[C@H](Cc1ccc(O)cc1)NC(=O)[C@H](CCCCN)NC(=O)[C@H](CO)NC(=O)[C@H](Cc1ccc(O)cc1)NC(=O)[C@H](CC(=O)O)NC(=O)[C@H](CO)NC(=O)[C@@H](NC(=O)[C@H](Cc1ccccc1)NC(=O)[C@@H](NC(=O)CNC(=O)[C@H](CCC(=O)O)NC(=O)[C@H](CO)NC(=O)[C@@H](N)Cc1c[nH]cn1)[C@@H](C)O)[C@@H](C)O)C(=O)N[C@@H](CC(=O)O)C(=O)N[C@@H](CC(N)=O)C(=O)N[C@@H](CCCNC(=N)N)C(=O)N[C@@H](CCCNC(=N)N)C(=O)N[C@@H](C)C(=O)N[C@@H](CCCCN)C(=O)N[C@@H](CC(=O)O)C(=O)N[C@@H](Cc1ccccc1)C(=O)N[C@H](C(=O)N[C@@H](CCC(N)=O)C(=O)N[C@@H](Cc1c[nH]c2ccccc12)C(=O)N[C@@H](CC(C)C)C(=O)N[C@@H](CCSC)C(=O)N[C@@H](CC(N)=O)C(=O)N[C@H](C(=O)O)[C@@H](C)O)C(C)C [dogfish glucagon, Dogfish glucagon (1-29)] (H-HSEGTFTSDYSKYMDNRRAKDFVQWLMNT-OH; N-terminus and C-terminus assumed) | –
3 | – | Glucagon-like peptide-1 [GLP-1] | less than two

Row | Compound | metabolised at 8 h [1] [%] | half-life [2]
4 | CSCC[C@H](NC(=O)[C@H](Cc1ccc(O)cc1)NC(=O)[C@H](CCCCN)NC(=O)[C@H](CO)NC(=O)[C@H](Cc1ccc(O)cc1)NC(=O)[C@H](CC(=O)O)NC(=O)[C@H](CO)NC(=O)[C@@H](NC(=O)[C@H](Cc1ccccc1)NC(=O)[C@@H](NC(=O)CNC(=O)[C@H](CCC(=O)O)NC(=O)[C@@H](C)NC(=O)[C@@H](N)Cc1c[nH]cn1)[C@@H](C)O)[C@@H](C)O)C(=O)N[C@@H](CC(=O)O)C(=O)N[C@@H](CC(N)=O)C(=O)N[C@@H](CCCNC(=N)N)C(=O)N[C@@H](CCCNC(=N)N)C(=O)N[C@@H](C)C(=O)N[C@@H](CCCCN)C(=O)N[C@@H](CC(=O)O)C(=O)N[C@@H](Cc1ccccc1)C(=O)N[C@H](C(=O)N[C@@H](CCC(N)=O)C(=O)N[C@@H](Cc1c[nH]c2ccccc12)C(=O)N[C@@H](CC(C)C)C(=O)N[C@@H](CCSC)C(=O)N[C@@H](CC(N)=O)C(=O)N[C@H](C(=O)N1CCC[C@H]1C(=O)N[C@@H](CO)C(=O)N[C@@H](CO)C(=O)NCC(=O)N[C@@H](C)C(=O)N1CCC[C@H]1C(=O)N1CCC[C@H]1C(=O)N1CCC[C@H]1C(=O)N[C@@H](CO)C(N)=O)[C@@H](C)O)C(C)C [(D-A^2) dogfish glucagon exendin, (D-A^2) dogfish glucagon exendin end] (H-H[dA]EGTFTSDYSKYMDNRRAKDFVQWLMNTPSSGAPPPS-NH2; N-terminus assumed) | 18.3 | –
